Reference: US12187709B2 (Genentech, Inc., priority 2021, dated 2025)

Experiments:
Cbl-b = Cbl-b (Homo sapiens (Human), UniProt Q13191); assay: Cbl-b LCK Ub TR-FRET assay (Cbl-b Lck HTRF); format: biochemical; conditions: for IC50: Cbl-b LCK Ub TR-FRET; for fold-selectivity (Cbl-b over C-cbl): ratio C-cbl Lck HTRF IC50 / Cbl-b Lck HTRF IC50
Outline: (§1)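 Detection reagents added, brief spin, 20 min RT. IC50 fit normalized to no-LCK (low) and DMSO (high) controls.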

[1] = target: Human Cbl-b (residues 40-426) (Homo sapiens (Human), UniProt Q13191); assay: Cbl-b SPR assay; format: binding; conditions: for Fold of selectivity: C-cbl SPR Kd vs Cbl-b SPR Kd; for Kd: SPR, 20° C.
Outline: (§2)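 Captured protein (1300-1500 RU for both isoforms) was probed in multi-cycle kinetics with 6 concentrations in 2-fold dilution, 60 s contact, 40 μl/min, dissociation 120-1200 s, double-referenced. Kinetic and affinity parameters came from a 1:1 binding fit. For slow off-rates, kd was set independently by a chaser-based method.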

c-Cbl = c-Cbl (Homo sapiens (Human), UniProt P22681); assay: C-Cbl LCK Ub TR-FRET assay (C-cbl Lck HTRF); format: biochemical
Outline: as §1

c-Cbl (residues 47-435) = c-Cbl (residues 47-435) (Homo sapiens (Human), UniProt P22681); assay: c-Cbl SPR assay; format: binding; conditions: 20° C.
Outline: as §2

Sequence of c-Cbl (P22681 47-435): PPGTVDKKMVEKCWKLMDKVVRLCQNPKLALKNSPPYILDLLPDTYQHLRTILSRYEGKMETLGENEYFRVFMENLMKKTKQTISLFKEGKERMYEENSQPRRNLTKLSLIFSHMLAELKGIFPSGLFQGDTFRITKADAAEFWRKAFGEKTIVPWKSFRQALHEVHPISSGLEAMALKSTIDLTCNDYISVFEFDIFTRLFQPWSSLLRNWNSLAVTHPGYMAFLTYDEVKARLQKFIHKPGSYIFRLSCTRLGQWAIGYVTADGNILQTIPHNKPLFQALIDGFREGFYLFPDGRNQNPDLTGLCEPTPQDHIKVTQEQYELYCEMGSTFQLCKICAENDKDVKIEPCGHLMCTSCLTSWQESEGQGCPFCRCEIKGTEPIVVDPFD
Sequence of c-Cbl (residues 47-435) (P22681 47-435): as above
Sequence of Human Cbl-b (residues 40-426) (Q13191 40-426): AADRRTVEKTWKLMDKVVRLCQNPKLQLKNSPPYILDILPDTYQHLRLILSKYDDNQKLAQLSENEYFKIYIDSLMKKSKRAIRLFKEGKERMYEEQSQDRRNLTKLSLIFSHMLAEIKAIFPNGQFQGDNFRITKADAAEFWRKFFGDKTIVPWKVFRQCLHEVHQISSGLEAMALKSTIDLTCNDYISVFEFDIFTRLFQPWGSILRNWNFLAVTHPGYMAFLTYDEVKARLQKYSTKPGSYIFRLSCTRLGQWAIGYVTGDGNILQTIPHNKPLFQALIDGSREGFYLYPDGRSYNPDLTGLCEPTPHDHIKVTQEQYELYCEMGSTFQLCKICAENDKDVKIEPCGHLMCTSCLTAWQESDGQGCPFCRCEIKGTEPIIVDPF
Sequence of Cbl-b (Q13191 40-426): as above

Row | SMILES | IC50 (Cbl-b) | fold-selectivity (Cbl-b over C-cbl) (Cbl-b) | Fold of selectivity [1] | Kd [1] | IC50 (c-Cbl) | Kd (c-Cbl (residues 47-435))
1 | Cn1cnnc1[C@]1(c2cc(OC3CCCC3)cc(N3Cc4c(cc(CNC5(C)CCC5)cc4C(F)(F)F)C3=O)c2)C[C@@H](C)C1 [Compound 195, 2-(3-(cyclopentyloxy)-5-((1r,3r)-3-methyl-1-(4-methyl-4H-1,2,4-triazol-3-yl)cyclobutyl)phenyl)-6-(((1-methylcyclobutyl)amino)methyl)-4-(trifluoromethyl)isoindolin-1-one] | 36 nM | 2.4x | 7.6× | 15 nM | 84 nM | 110 nM
2 | CO[C@H]1C[C@](c2cccc(N3Cc4c(cccc4C(F)(F)F)C3=O)c2)(c2nncn2C)C1 [Compound 196, 2-(3-((1r,3r)-3-methoxy-1-(4-methyl-4H-1,2,4-triazol-3-yl)cyclobutyl)phenyl)-4-(trifluoromethyl)isoindolin-1-one] | 1500 nM | 5.6x | 5.5× | 1800 nM | 8300 nM | 9900 nM
3 | Cn1cnnc1C1(c2cccc(N3Cc4c(cc(CNC5(C)CCC5)cc4C(F)F)C3=O)c2)CC2(COC2)C1 [Compound 197, 4-(difluoromethyl)-2-(3-(6-(4-methyl-4H-1,2,4-triazol-3-yl)-2-oxaspiro[3.3]heptan-6-yl)phenyl)-6-(((1-methylcyclobutyl)amino)methyl)isoindolin-1-one] | 37 nM | 4.5x | 9.2× | 12 nM | 160 nM | 110 nM
4 | CC(C)[C@H]1CN(C)CCN1Cc1cc2c(c(C(F)F)c1)CN(c1cccc(C3(c4nncn4C)CC4(COC4)C3)c1)C2=O.O=CO.O=CO [Compound 198, (S)-4-(difluoromethyl)-6-((2-isopropyl-4-methylpiperazin-1-yl)methyl)-2-(3-(6-(4-methyl-4H-1,2,4-triazol-3-yl)-2-oxaspiro[3.3]heptan-6-yl)phenyl)isoindolin-1-one formate] | 46 nM | 4.4x | 5.1× | 29 nM | 200 nM | 120 nM
5 | COc1cc(N2Cc3c(cc(CNC4(C)CCC4)cc3C(F)(F)F)C2=O)cc([C@]2(c3nncn3C)C[C@@H](OC)C2)c1 [Compound 200, 2-(3-methoxy-5-((1s,3s)-3-methoxy-1-(4-methyl-4H-1,2,4-triazol-3-yl)cyclobutyl)phenyl)-6-(((1-methylcyclobutyl)amino)methyl)-4-(trifluoromethyl)isoindolin-1-one] | 24 nM | 1.7x | 2.4× | 8 nM | 40 nM | 19 nM
6 | COc1cc(N2Cc3c(cc(CNC4(C)CCC4)cc3C(F)(F)F)C2=O)cc([C@]2(c3nncn3C)C[C@H](OC)C2)c1 [Compound 201, 2-(3-methoxy-5-((1r,3r)-3-methoxy-1-(4-methyl-4H-1,2,4-triazol-3-yl)cyclobutyl)phenyl)-6-(((1-methylcyclobutyl)amino)methyl)-4-(trifluoromethyl)isoindolin-1-one] | 12 nM | 1.5x | 3.6× | 3 nM | 18 nM | 11 nM
7 | CCOc1cc(N2Cc3c(cc(CNC4(C)CCC4)cc3C(F)(F)F)C2=O)cc([C@]2(c3nncn3C)C[C@H](OC)C2)c1 [Compound 202, 2-(3-ethoxy-5-((1r,3r)-3-methoxy-1-(4-methyl-4H-1,2,4-triazol-3-yl)cyclobutyl)phenyl)-6-(((1-methylcyclobutyl)amino)methyl)-4-(trifluoromethyl)isoindolin-1-one] | 11 nM | 1.8x | 5.2× | 3.3 nM | 21 nM | 17 nM
8 | CCOc1cc(N2Cc3c(cc(CNC4(C)CCC4)cc3C(F)(F)F)C2=O)cc([C@]2(c3nncn3C)C[C@@H](OC)C2)c1 [Compound 203, 2-(3-ethoxy-5-((1s,3s)-3-methoxy-1-(4-methyl-4H-1,2,4-triazol-3-yl)cyclobutyl)phenyl)-6-(((1-methylcyclobutyl)amino)methyl)-4-(trifluoromethyl)isoindolin-1-one] | 18 nM | 2.1x | 3.3× | 6.4 nM | 38 nM | 21 nM

Further lines, results first:

Row | IC50 (Cbl-b) | fold-selectivity (Cbl-b over C-cbl) (Cbl-b) | Fold of selectivity [1] | Kd [1] | IC50 (c-Cbl) | Kd (c-Cbl (residues 47-435)) | SMILES
9 | 63 nM | 3.8x | 2.8× | 46 nM | 240 nM | 130 nM | C=CCOc1cc(N2Cc3c(cc(CNC4(C)CCC4)cc3C(F)(F)F)C2=O)cc([C@]2(c3nncn3C)C[C@@H](OC)C2)c1 [Compound 205, 2-(3-(allyloxy)-5-((1s,3s)-3-methoxy-1-(4-methyl-4H-1,2,4-triazol-3-yl)cyclobutyl)phenyl)-6-(((1-methylcyclobutyl)amino)methyl)-4-(trifluoromethyl)isoindolin-1-one]
10 | 34 nM | 2.4x | 2.4× | 12 nM | 82 nM | 30 nM | CO[C@H]1C[C@@](c2cc(OC(C)C)cc(N3Cc4c(cc(CNC5(C)CCC5)cc4C(F)(F)F)C3=O)c2)(c2nncn2C)C1 [Compound 206, 2-(3-isopropoxy-5-((1s,3s)-3-methoxy-1-(4-mehtyl-4H-1,2,4-triazol-3-yl)cyclobutyl)phenyl)-6-(((1-methylcyclobutyl)amino)methyl)-4-(trifluoromethyl)isoindolin-1-one]
11 | 24 nM | 2.2x | 2.6× | 9.3 nM | 52 nM | 24 nM | CO[C@H]1C[C@](c2cc(OC(C)C)cc(N3Cc4c(cc(CNC5(C)CCC5)cc4C(F)(F)F)C3=O)c2)(c2nncn2C)C1 [Compound 207, 2-(3-isopropoxy-5-((1r,3r)-3-methoxy-1-(4-methyl-4H-1,2,4-triazol-3-yl)cyclobutyl)phenyl)-6-(((1-methylcyclobutyl)amino)methyl)-4-(trifluoromethyl)isoindolin-1-one]
12 | 450 nM | 4.8x | 6.0× | 250 nM | 2200 nM | 1500 nM | CO[C@H]1C[C@@](c2cc(OC3CCCC3)cc(N3Cc4c(cc(CNC5(C)CCC5)cc4C(F)(F)F)C3=O)c2)(c2nncn2C)C1 [Compound 208, 2-(3-(cyclopentyloxy)-5-((1s,3s)-3-methoxy-1-(4-methyl-4H-1,2,4-triazol-3-yl)cyclobutyl)phenyl)-6-(((1-methylcyclobutyl)amino)methyl)-4-(trifluoromethyl)isoindolin-1-one]
13 | 44 nM | 7.2x | 12× | 17 nM | 320 nM | 200 nM | CO[C@H]1C[C@](c2cc(NC3CCCC3)cc(N3Cc4c(cc(CNC5(C)CCC5)cc4C(F)(F)F)C3=O)c2)(c2nncn2C)C1 [Compound 209, 2-(3-(cyclopentylamino)-5-((1r,3r)-3-methoxy-1-(4-methyl-4H-1,2,4-triazol-3-yl)cyclobutyl)phenyl)-6-(((1-methylcyclobutyl)amino)methyl)-4-(trifluoromethyl)isoindolin-1-one]
